According to US11633443B2, “Algal extract comprising sulphated and non-sulphated polyanionic polysaccharides and uses thereof” (Amadeite, priority 2012, dated 2023):
“Also recorded” adds a separate entry of the source. Counter-ions that a name gives are not always drawn.

System: adult male Wistar rats
Test: Behavioural despair test (BDT)
Type: in vivo, rat
Protocol: The anti-depressant effects of an algal extract according to the invention (AE), administered orally as a preventive treatment with 3 doses (10, 20 and 40 mg/kg/d) were evaluated in adult male Wistar rats in the behavioural despair test (BDT).
The extract was daily administered as a semi-chronic treatment for 14 days. The effects of the extract were evaluated in the BDT on groups of 12 rats as compared with a control batch treated with the carrier (spring water) and a reference batch treated with Imipramine at the dose of 10 mg/kg/d.
Sixty male Wistar rats (Charles River Laboratories, France) weighing from 200-225 g were used. Upon receiving them, the rats were marked and distributed in groups of 4 in polycarbonate cages of the F type (48×27×20 cm, U.A.R., 91-Epinay-Sur-Orge, France). The animals were housed in an air-conditioned animal housing facility, at a temperature of 22±2° C. and a relative humidity of 50±20%. The rats had standard feed 2016 (Harlan, Gannat, France) and drink ad libitum. They were subject to a reverse light-darkness cycle of 12 hours.
After getting used to the conditions of the laboratory for one week, the rats were weighed and randomized according to their weight in 5 treatment groups (n=12/group).
The experimental devices consisted in Plexiglas cylinders with a height of 50 cm and a diameter of 20 cm filled with water at 25° C. up to a height of 30 cm.
After 13 days of daily treatment with the products to be tested, the rats were placed at D14 in the devices for a period of 15 minutes in order to evaluate the immobility time of each animal. Immediately after this first test, the rats received their 14th treatment.
At D15, the rats received two treatments: the first, 5 hours before the test and the second 1 hour before the test. This procedure is usually used in the literature for testing the efficiency of a product against depression. The test was conducted under the same conditions as the day before for a period of 5 minutes.
The recorded immobility duration during the first 5 minutes of both tests (at D14 and D15) reflects the capacity of the animal of resigning itself when it is confronted with a situation from which it cannot escape. This resignation behaviour is assimilated with depression.
The product is an AE (algal extract) as a powder representing a freeze-dried and crushed concentrated fraction of a water-soluble algal extract prepared according to Example no. 1. The extract to be tested was dissolved in spring water and was administered to the rats orally at one of the 3 tested doses for 15 successive days with an administration volume of 5 ml/kg. The animals were weighed every two or three days in order to adapt their specific treatments to their weight. Their food and water intakes were noted every two or three days during the whole duration of the study.
The animals of the Reference group receive daily 10 mg/kg/d of Imipramine hydrochloride (Sigma Aldrich) dissolved in spring water with an administration volume of 5 ml/kg.
ANOVA in parametric mode was applied, followed, in the case of heterogeneity, by comparisons by means of the non-paired t-test for comparing the treated groups with the Carrier group and the Reference group.
Paired ANOVA was used, followed, in the case of heterogeneity, by comparisons with the paired t-test for two by two comparisons of repeated measurements of BDT in each of the groups.

CN(C)CCCN1c2ccccc2CCc2ccccc21 [Imipramine, Imipramine hydrochloride]
immobility time at D15 compared with the Carrier (in words) (10 mg/kg/d): significantly shorter | Immobility duration in the behavioural despair test at D15 (Average ± ESM) (10 mg/kg/d orally, 5 minutes test, n = 12): 3.8 ± 1.0 s | Immobility duration in the behavioural despair pre-test at D14 (Average ± SME) (10 mg/kg/d orally, first 5 minutes, n = 12): 16.3 ± 4.6 s | change of immobility time between D14 and D15 (in words) (10 mg/kg, hydrochloride): significantly decrease; also recorded: significantly reduced | immobility duration at D14: difference between Carrier, Imipramine and AE groups (Imipramine 10 mg/kg, AE at the three tested doses (10, 20, 40 mg/kg)): no significant difference
